Experimental findings from patent publication US12509431B2, “1,4-dihydroquinazolinone compounds and uses thereof” (Edgewise Therapeutics, Inc., priority 2022, dated 2025) are described below.

Where two headings read alike, the source gives them in different places.

The test system of experiment [1] is Rabbit Skeletal myofibrils (rabbit psoas muscle). Description: Myofibril ATPase assay (PK/LDH NADH-coupled), skeletal myofibrils. The class given is biochemical. In short, it runs like this:
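ATPase rate taken as linear-regression slope of A340 (NADH depletion through PK/LDH coupling) over a 75 min kinetic read, with psoas-derived rabbit skeletal myofibrils at pH 7.0. Four-parameter fits of vehicle-normalized activity give EC25 and, where reached, EC50.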

In experiment [2] the test system is isoflurane-anesthetized SD rats. Briefly: In vivo echocardiography of systolic cardiac performance (FS, SWT, HR, LV volumes) after a single oral dose. The conditions noted are these: Rattus norvegicus, single dose 10 mg/kg PO, ~2 hrs post-dosing, vs. vehicle. As for the experimental part: Experiments were performed to evaluate the in vivo ability of the compounds of the disclosure to modulate systolic cardiac performance. Non-invasively echocardiography was used to assess cardiac indicators in isoflurane-anesthetized SD rats. A set of conscious rats were treated with either vehicle control (0 mg/kg PO; n=78) or a single dose of an test compound (10 mg/kg PO, n=2 to 6/compound) via oral gavage. Cardiac function/geometry were recorded at two separate time-points/days: once prior to dosing (i.e., at baseline, day −2) and at ˜2 hrs post-dosing (day 0).
In these experiments, heart rate (HR), echocardiography-derived indices of left-ventricular systolic performance, as well as dimensions/volumes were measured using a high-frequency transducer and parastemnal long-axis transthoracic views (Vevo3100, VisualSonic). LV fractional shortening (FS), an index of systolic function, was defined as the end-diastole normalized change in internal dimensions divided by the […] (LVid) of the left ventricle between end-systole (LVids) and end-diastole (LVidd) (i.e., FS=100·[LVidd−LVids]/LVidd). LV volumes were derived using the Teichholz formula (LVV=7·LVid^3/[2.4+LVid]). In addition, a systolic wall-thickening index (SWT) was also evaluated. SWT is defined as the relative ratio (end-diastole normalized) of left-ventricular (anterior and posterior) wall-thickness change during systole; i.e., SWT=I{[(anterior LV wall thickness in systole−anterior LV wall thickness in diastole)][…][(posterior LV wall thickness in systole−posterior LV wall thickness in diastole)]}/{2*diastolic thickness}. In all cases, blood samples were taken (via either tail-vein micro-sampling or cardiac-puncture) at the time of each echocardiographic examination in order to establish pharmacokinetic (PK)/pharmacodynamics (PD) relationships.

The mark [3] stands for this setting: EDV (LV volume, Teichholz formula), read-out: EDV % vs. VEH.
[4] abbreviates: LV fractional shortening, read-out: FS % vs. VEH.
Setting [5] is: heart rate, read-out: HR % vs. VEH.
Where [6] appears, read: systolic wall-thickening index, read-out: SWT % vs. VEH.

In the case of `C[C@@H](NC(=O)CN1Cc2c(ccc(F)c2F)NC1=O)c1ncc(C#N)cc1F` [Compound B141, (R)—N-(1-(5-cyano-3-fluoropyridin-2-yl)ethyl)-2-(5,6-difluoro-2-oxo-1,4-dihydroquinazolin-3(2H)-yl)acetamide], the “Rabbit Psoas IC25” value in experiment [1] (Table 8) worked out at 0.4228 µM. The change in vivo at 10 mg/kg in experiment [2] (setting [3]) is -3%; in experiment [2] (setting [4]), -15%; in experiment [2] (setting [5]), 13%; in experiment [2] (setting [6]), -19%.

`O=C(CN1Cc2c(ccc(F)c2F)NC1=O)N[C@@H]1COc2cc(F)cc(F)c21` [Compound B147]: the “Rabbit Psoas IC25” value in experiment [1] (Table 8) amounted to 0.01623 µM. Also, the change in vivo at 10 mg/kg in experiment [2] (setting [3]) is 10%; in experiment [2] (setting [4]), -35%; in experiment [2] (setting [5]), 10%; in experiment [2] (setting [6]), -37%.

For the compound `C[C@H](NC(=O)CN1Cc2cc(F)ccc2NC1=O)c1ccc(F)cc1F` [Compound B247, N-[(1S)-1-(2,4-Difluorophenyl)ethyl]-2-(6-fluoro-2-oxo-1,4-dihydroquinazolin-3-yl)acetamide], the “Rabbit Psoas IC25” value in experiment [1] (Table 8) came to 0.03205 µM. Also, the change in vivo at 10 mg/kg is 7% in experiment [2] (setting [3]), -31% in experiment [2] (setting [4]), 7% in experiment [2] (setting [5]) and -35% in experiment [2] (setting [6]).

Consider `O=C(CN1Cc2cc(F)ccc2NC1=O)N[C@@H]1COc2cc(F)cc(F)c21` [Compound B145], for which, in experiment [1] (Table 8), the “Rabbit Psoas IC25” value turned out to be 0.0116 µM. Moreover, the change in vivo at 10 mg/kg is 11% in experiment [2] (setting [3]), -42% in experiment [2] (setting [4]), 7% in experiment [2] (setting [5]) and -39% in experiment [2] (setting [6]).

For the compound `C[C@H](NC(=O)CN1Cc2cc(F)ccc2NC1=O)c1ncc(C#N)cc1F` [Compound B199], the “Rabbit Psoas IC25” value in experiment [1] (Table 8) was 0.0394 µM. Besides, the change in vivo at 10 mg/kg in experiment [2] (setting [3]) is 11%; in experiment [2] (setting [4]), -54%; in experiment [2] (setting [5]), 22%; in experiment [2] (setting [6]), -55%.

As for `O=C(CN1C(=O)Nc2cccnc2C12CC2)N[C@@H]1COc2cc(F)cc(F)c21` [Compound N33], the “Rabbit Psoas IC25” value in experiment [1] (Table 7) came out at 0.01937 µM. The change in vivo at 10 mg/kg in experiment [2] (setting [3]) is 2%; in experiment [2] (setting [4]), -10%; in experiment [2] (setting [5]), 6%; in experiment [2] (setting [6]) it was -5%.

For the compound `C[C@H](NC(=O)CN1Cc2c(ccc(F)c2F)NC1=O)c1ccc(C#N)cc1F` [Compound B189], in experiment [1] (Table 8), the “Rabbit Psoas IC25” value is 0.01879 µM. For the same compound, the change in vivo at 10 mg/kg in experiment [2] (setting [3]) was 19%; in experiment [2] (setting [4]), -13%; in experiment [2] (setting [5]) it was -5%; in experiment [2] (setting [6]), -29%.

For `CC(NC(=O)CN1Cc2cc(F)ccc2NC1=O)c1ccc(C#N)cc1F` (single isomer, unassigned) [Compound B206], in experiment [1] (Table 8), the “Rabbit Psoas IC25” value was found to be 0.01129 µM. In addition, the change in vivo at 10 mg/kg is 29% in experiment [2] (setting [3]), -67% in experiment [2] (setting [4]), 7% in experiment [2] (setting [5]) and -57% in experiment [2] (setting [6]).

As to `C[C@H](NC(=O)CN1Cc2c(ccc(F)c2F)NC1=O)c1ncc(F)cc1F` [Compound B191], the “Rabbit Psoas IC25” value in experiment [1] (Table 8) came to 0.02019 µM. For the same compound, the change in vivo at 10 mg/kg in experiment [2] (setting [3]) was 9%; in experiment [2] (setting [4]), -59%; in experiment [2] (setting [5]), 17%; in experiment [2] (setting [6]), -59%.

As for `N#Cc1cnc2c(c1)OCC2NC(=O)CN1Cc2c(ccc(F)c2F)NC1=O` (single isomer, unassigned) [Compound B65], the “Rabbit Psoas IC25” value in experiment [1] (Table 8) came out at 0.0191 µM. Besides, the change in vivo at 10 mg/kg is 22% in experiment [2] (setting [3]), -61% in experiment [2] (setting [4]), 22% in experiment [2] (setting [5]) and -53% in experiment [2] (setting [6]).
